Assay results published in patent publication US12427134B2, “Methods of reducing the risk of cardiovascular events in a subject with atrial fibrillation and/or atrial flutter” (priority 2019, dated 2025).

Tested on: hypertriglyceridemic patients with cardiovascular disease or at high risk for cardiovascular disease
Experiment: REDUCE-IT: bleeding-related adverse events (serious and any, by category, preferred term, antithrombotic medication, fatal association)
Format: in vivo
From the text: Adverse Events of Special Interest: Bleeding-related adverse events, glucose control (fasting blood glucose and HbA1c), and indicators of hepatic disorders (e.g., ALT or AST increases >3×ULN, total bilirubin increases of ≥2×ULN) were summarized separately and compared between treatment groups.
Due to the convergence of clinical events shortly before a patient's death, direct causality of an individual bleeding event with death cannot always be determined. Bleeding-related clinical events (i.e., TEAEs, SAEs, or positively adjudicated endpoints) that occurred proximal to death (per site Investigator, CEC, or Sponsor medical assessment) are presented in Table 82 and occurred in 23 (0.6%) patients in the AMR101 group and 34 (0.8%) patients in the placebo group, with no statistically significant difference between treatment groups (p=0.18). Sponsor medical assessment classified 20 (0.5%) patients in the AMR101 group and 23 (0.6%) patients in the placebo group as having a bleeding event that likely contributed to death, with no statistically significant difference between treatment groups (p=0.76). […] None of these 57 deaths were associated with study drug per Investigator assessment; one bleeding event in each treatment group was considered possibly related to study drug per Investigator assessment.
A summary of baseline or on-treatment anti-thrombic medication use by type in patients with serious bleeding events for the ITT population is provided in Tables 97A-97D.

CC/C=C\C/C=C\C/C=C\C/C=C\C/C=C\CCCC(=O)OCC [AMR101, eicosapentaenoic acid ethyl ester]
Bleeding event that did not likely contribute to death (Sponsor medical assessment), patients (Safety population): 3 (0.1%) n (%)
Bleeding event that likely contributed to death (Sponsor medical assessment), patients (Safety population): 20 (0.5%) n (%)
Bleeding-related clinical events that occurred proximal to death, patients (Safety population): 23 (0.6%) n (%)
Fatal bleeding events (Safety population): no fatal bleeding events
Bleeding Not Likely Contributing to a Fatal Event, % (Safety population N = 4089, P-value 0.06): (0.1) %
Any Bleeding with a Possible Fatal Association, % (Safety population N = 4089, P-value 0.18): (0.6) %
Bleeding Likely Contributing to a Fatal Event, % (Safety population N = 4089, P-value 0.76): (0.5) %
Fatal bleeding events (Safety population, listed as icosapent ethyl): no fatal bleeding observed in either group
Bleeding TEAEs, % (human, in vivo): (11.8) %
Bleeding-related disorders (bleeding TEAEs), patients (human, in vivo): 11.8%
Patients with any serious bleeding TEAE, % patients (human, in vivo): (2.7) %
Patients with any serious bleeding TEAE, n patients (human, in vivo): 111
Patients with serious CNS bleeding, % patients (human, in vivo): (0.3) %
Patients with serious CNS bleeding, n patients (human, in vivo): 14
Patients with serious Gl bleeding, % patients (human, in vivo): (1.5) %
Patients with serious Gl bleeding, n patients (human, in vivo): 62
Patients with serious other bleeding, % patients (human, in vivo): (1.0) %
Patients with serious other bleeding, n patients (human, in vivo): 41
Serious GI hemorrhage, patients (human, in vivo): 0.6%
Serious bleeding TEAE: Aortic Aneurysm Rupture (human, in vivo): 1 (0.0%) n (%)
Serious bleeding TEAE: Bleeding related disorders (human, in vivo): 111 (2.7%) n (%)
Serious bleeding TEAE: Brain Contusion (human, in vivo): 0 (0.0%) n (%)
Serious bleeding TEAE: Catheter Site Hemorrhage (human, in vivo): 0 (0.0%) n (%)
Serious bleeding TEAE: Central nervous system bleeding (human, in vivo): 14 (0.3%) n (%)
Serious bleeding TEAE: Cerebral Hemorrhage (human, in vivo): 0 (0.0%) n (%)
Serious bleeding TEAE: Cystitis Hemorrhagic (human, in vivo): 2 (0.0%) n (%)
Serious bleeding TEAE: Diverticulitis Intestinal Hemorrhagic (human, in vivo): 0 (0.0%) n (%)
Serious bleeding TEAE: Diverticulum Intestinal Hemorrhagic (human, in vivo): 3 (0.1%) n (%)
Serious bleeding TEAE: Duodenal Ulcer Hemorrhage (human, in vivo): 2 (0.0%) n (%)
Serious bleeding TEAE: Ecchymosis (human, in vivo): 1 (0.0%) n (%)
Serious bleeding TEAE: Epistaxis (human, in vivo): 7 (0.2%) n (%)
Serious bleeding TEAE: Esophageal Hemorrhage (human, in vivo): 0 (0.0%) n (%)
Serious bleeding TEAE: Extravasation Blood (human, in vivo): 1 (0.0%) n (%)
Serious bleeding TEAE: Gastric Hemorrhage (human, in vivo): 1 (0.0%) n (%)
Serious bleeding TEAE: Gastric Ulcer Hemorrhage (human, in vivo): 3 (0.1%) n (%)
Serious bleeding TEAE: Gastrointestinal Angiodysplasia Hemorrhagic (human, in vivo): 1 (0.0%) n (%)
Serious bleeding TEAE: Gastrointestinal bleeding (human, in vivo): 62 (1.5%) n (%)
Serious bleeding TEAE: Genital Hemorrhage (human, in vivo): 1 (0.0%) n (%)
Serious bleeding TEAE: Hemarthrosis (human, in vivo): 0 (0.0%) n (%)
Serious bleeding TEAE: Hematemesis (human, in vivo): 3 (0.1%) n (%)
Serious bleeding TEAE: Hematochezia (human, in vivo): 1 (0.0%) n (%)
Serious bleeding TEAE: Hematoma (human, in vivo): 1 (0.0%) n (%)
Serious bleeding TEAE: Hemoptysis (human, in vivo): 1 (0.0%) n (%)
Serious bleeding TEAE: Hemorrhagic Anemia (human, in vivo): 4 (0.1%) n (%)
Serious bleeding TEAE: Hemorrhagic Duodenitis (human, in vivo): 0 (0.0%) n (%)
Serious bleeding TEAE: Hemorrhagic Transformation Stroke (human, in vivo): 1 (0.0%) n (%)
Serious bleeding TEAE: Hemorrhoidal Hemorrhage (human, in vivo): 3 (0.1%) n (%)
Serious bleeding TEAE: Hemothorax (human, in vivo): 1 (0.0%) n (%)
Serious bleeding TEAE: Immune Thrombocytopenic Purpura (human, in vivo): 0 (0.0%) n (%)
Serious bleeding TEAE: Intra-Abdominal Hemorrhage (human, in vivo): 1 (0.0%) n (%)
Serious bleeding TEAE: Intracranial Hemorrhage (human, in vivo): 0 (0.0%) n (%)
Serious bleeding TEAE: Large Intestinal Hemorrhage (human, in vivo): 1 (0.0%) n (%)
Serious bleeding TEAE: Lower Gastrointestinal Hemorrhage (human, in vivo): 5 (0.1%) n (%)
Serious bleeding TEAE: Mallory-Weiss Syndrome (human, in vivo): 1 (0.0%) n (%)
Serious bleeding TEAE: Melaena (human, in vivo): 3 (0.1%) n (%)
Serious bleeding TEAE: Menorrhagia (human, in vivo): 1 (0.0%) n (%)
Serious bleeding TEAE: Mouth Hemorrhage (human, in vivo): 0 (0.0%) n (%)
Serious bleeding TEAE: Other bleeding (human, in vivo): 41 (1.0%) n (%)
Serious bleeding TEAE: Pancreatitis Hemorrhagic (human, in vivo): 1 (0.0%) n (%)
Serious bleeding TEAE: Peptic Ulcer Hemorrhage (human, in vivo): 1 (0.0%) n (%)
Serious bleeding TEAE: Pericardial Hemorrhage (human, in vivo): 0 (0.0%) n (%)
Serious bleeding TEAE: Post Procedural Hematoma (human, in vivo): 1 (0.0%) n (%)
Serious bleeding TEAE: Post Procedural Hematuria (human, in vivo): 0 (0.0%) n (%)
Serious bleeding TEAE: Post Procedural Hemorrhage (human, in vivo): 5 (0.1%) n (%)
Serious bleeding TEAE: Renal Hemorrhage (human, in vivo): 0 (0.0%) n (%)
Serious bleeding TEAE: Retinal Hemorrhage (human, in vivo): 1 (0.0%) n (%)
Serious bleeding TEAE: Retroperitoneal Hematoma (human, in vivo): 0 (0.0%) n (%)
Serious bleeding TEAE: Retroperitoneal Hemorrhage (human, in vivo): 1 (0.0%) n (%)
Serious bleeding TEAE: Shock Hemorrhagic (human, in vivo): 2 (0.0%) n (%)
Serious bleeding TEAE: Subarachnoid Hemorrhage (human, in vivo): 2 (0.0%) n (%)
Serious bleeding TEAE: Subdural Hemorrhage (human, in vivo): 2 (0.0%) n (%)
Serious bleeding TEAE: Traumatic Hematoma (human, in vivo): 2 (0.0%) n (%)
Serious bleeding TEAE: Traumatic Intracranial Hemorrhage (human, in vivo): 0 (0.0%) n (%)
Serious bleeding TEAE: Ulcer Hemorrhage (human, in vivo): 1 (0.0%) n (%)
Serious bleeding TEAE: Upper Gastrointestinal Hemorrhage (human, in vivo): 3 (0.1%) n (%)
Serious bleeding TEAE: Urinary Bladder Hemorrhage (human, in vivo): 1 (0.0%) n (%)
Serious bleeding TEAEs, % (human, in vivo): (2.7) %
Serious bleeding TEAEs, patients (human, in vivo): 2.7%
Serious bleeding adverse event - Epistaxis, % patients (human, in vivo): (0.2) %
Serious bleeding adverse event - Epistaxis, n patients (human, in vivo): 7
Serious bleeding adverse event - Gl hemorrhage, % patients (human, in vivo): (0.6) %
Serious bleeding adverse event - Gl hemorrhage, n patients (human, in vivo): 26
Serious bleeding adverse event - Hematuria, % patients (human, in vivo): (0.2) %
Serious bleeding adverse event - Hematuria, n patients (human, in vivo): 8
Serious bleeding adverse event - Rectal hemorrhage, % patients (human, in vivo): (0.2) %
Serious bleeding adverse event - Rectal hemorrhage, n patients (human, in vivo): 10
Serious bleeding adverse event - Subdural hematoma, % patients (human, in vivo): (0.2) %
Serious bleeding adverse event - Subdural hematoma, n patients (human, in vivo): 9
Serious central nervous system bleeding, patients (human, in vivo): 0.3%
Serious gastrointestinal bleeding, patients (human, in vivo): 1.5%
TEAE of special interest: Bleeding-related disorders, % (human, in vivo): (11.8) %
TEAE of special interest: Central nervous system bleeding, % (human, in vivo): (0.5) %
TEAE of special interest: Gastrointestinal bleeding, % (human, in vivo): (3.1) %
TEAE of special interest: Other bleeding, % (human, in vivo): (9.2) %
Serious bleeding TEAE: Gastrointestinal Hemorrhage (human, in vivo, 4.9 years): 26 (0.6%) n (%)
Serious bleeding TEAE: Hematuria (human, in vivo, 4.9 years): 8 (0.2%) n (%)
Serious bleeding TEAE: Rectal Hemorrhage (human, in vivo, 4.9 years): 10 (0.2%) n (%)
Serious bleeding TEAE: Subdural Hematoma (human, in vivo, 4.9 years): 9 (0.2%) n (%)
Patients with any bleeding/at risk (on treatment: Clopidogrel, ITT): 124/951
